Values joined by “and” are separate entries in the source; they are usually repeats but may differ in a detail not shown here. Equal values may be shown once. “Also recorded” adds a separate entry of the source. Read-outs that look alike come from different tables or passages of the source. Ends that are not written are not given here.
Tests used:
BALB/c mice = test: ELISA for anti-peptide antibody response after immunization; conditions: high molecular weight forms
[1] = type: in vivo, Balb/c mice
[2] = tested on: HIV-1 infected CCRF-CEM and uninfected Molt-4 cells; conditions: cited from earlier work
PLN cells = test: In vitro proliferation of PLN cells (3H-TdR incorporation) after footpad immunization; type: in vivo, B6C3 F1 mice; conditions: disulfide (di-Cys) polymeric form; summary of mouse studies
Procedure: The high molecular weight, multimeric di-Cys peptide polymeric forms of the peptides described in EXAMPLE 1 were assayed for their elicitation of a T cell proliferative response as in Millich et al. (1985).
FIGURES 2-5 illustrate the peptide-specific ^3H-TdR incorporation for T cell responses (delta cpm) in mice with differing major histocompatibility (MHC) haplotypes, B6C3 F1 (C57B1/6xC^3H/HcJ) mice (FIGURES 2 and 4) and (A.SWxBALB/c) F1 mice (FIGURES 3 and 5), for all of the synthetic peptides. The ^3H-TdR incorporation values represent the difference between the radioactivity values obtained in wells containing antigen and in control wells without added antigen. The non-specific proliferation of PLN cells was determined by including an unrelated peptide in the assays, shown as a horizontal bar for each peptide.

PBMC = PBMC proliferation after immunization with a mixture of eight synthetic peptides; type: in vivo, rhesus monkeys; parameters: key to T-cell Proliferation Responses, Rhesus Monkey #7 / T-cell Proliferation Responses, Rhesus Monkey #23 / T-cell Proliferation Responses, Rhesus Monkey #283C: (-), no detectable response; (1+), poor response; (2+), good response; (3+), better response; (4+, 6+), best response; (4+, 6+), best response; conditions: for T-cell Proliferation Responses, Rhesus Monkey #7 / T-cell Proliferation Responses, Rhesus Monkey #23 / T-cell Proliferation Responses, Rhesus Monkey #283C: PBMC response to the individual antigen after immunization with mixture of eight peptides; for proliferative responses of PBMCs (in words): three rhesus monkeys immunized with mixture of eight peptides
Procedure: In the present studies, three rhesus monkeys (#7, #23 and #283C) were immunized subcutaneously with 1 ml (0.1 ml/site) of a mixture of eight synthetic peptides (300 µg of each peptide in sterile water) emulsified in complete Freund's adjuvant at 1:1 ratio. […] At 3 and 7 weeks after the primary immunization, two booster injections of the peptide mixture (150 µg of each peptide in sterile water) emulsified in incomplete Freund's adjuvant were given to each monkey. Monkey #7 was terminated after 34 weeks, for health reasons unrelated to the study, while the remaining two monkeys (#283C and #23) received one additional booster injection at 25 weeks.
At two week intervals following the first immunization of each animal, 15 ml of whole heparinized blood was collected by venous puncture. The peripheral blood mononuclear cells (PBMC) were separated by standard ficoll-hypaque centrifugation and employed in proliferation assays. The PBMCs were monitored every two weeks for a period of 32 weeks for proliferative responses against individual peptides and recombinant gp160.

HIV-1 IIIB = test: Effect of V3 loop peptides on HIV-1 IIIB infection of human cells (RT activity); type: cell-based; conditions: for RT ACTIVITY (CPM): No Peptide 7528, Uninfected cells 558
Description: As detailed in TABLE 11A, these peptides include D23, D24, D25, D26, D30, D35, D38, D39, D40 and D44, which reflect a variety of strains such as mn, rf, wmj-3, sc, z6, eli, mn (y-l) and mn (y-p). However, it is important to note that this assay was confined specifically to inhibiting the infection of the heterologous strain HIV-1 IIIB. […]

[3] = tested on: envelope protein gp160 of HIV-1 IIIB, mn or rf strains; type: cell-based
HIV-1 [4] = type: cell-based, HIV-1 IIIB
HIV-1 [5] = type: cell-based; conditions: seven days after infection
3A9 = type: in vivo, Balb/c mice
HIV-1 [6] = type: cell-based; conditions: various concentrations, seven days after infection
HIV-1 [7] = type: cell-based; conditions: various concentrations, seven days after infection; remark: listed apart in the source
[8] = 1 µg/ml, RT activity in culture supernatant after 9 days, IIIB strain

## CRIKQIINMWQGVGKAMYA [Peptide 65]
BALB/c mice
  anti-peptide antibody titers (in words): high antibody titers

## CRIKQIINMWQGVGKAMYA [Peptide 122]
[1]; helper T-cell peptide injected alone
  CTL-inducing activity: lacked CTL-inducing activity

## CTRPNNNTRKSIRIQRGPGRAFVTIGKIGNMRQAHC [reference compound]
[2]; 100 µM (approximately 300 µg/ml)
  inhibition of syncytium formation: 30-60%

## FEPIPIHYCAFPGF [Peptide 114]
BALB/c mice
  anti-peptide antibody titers (in words): high antibody titers

## FLGFLGAAGSTMGAASLTLTVQANQ [Peptide 63]
PLN cells
  T cell response directed against both the corresponding peptide and native gp160: strong T cell response
PBMC
  T-cell Proliferation Responses, Rhesus Monkey #7: 2+
  T-cell Proliferation Responses, Rhesus Monkey #23: 4+
  T-cell Proliferation Responses, Rhesus Monkey #283C: 3+
  proliferative responses of PBMCs (in words): good proliferative responses
BALB/c mice
  anti-peptide antibody titers (in words): very low to negligible; also recorded: do not stimulate anti-peptide antibody production

## GIAIGPGRTLYAREK [Peptide D27]
HIV-1 IIIB
  RT ACTIVITY (CPM): 7657 CPM

## GIHFGPGQALYTTGI [Peptide D33]
HIV-1 IIIB
  RT ACTIVITY (CPM): 8959 CPM

## GTGPCTNVSTVQC [Peptide 116]
PBMC
  T-cell Proliferation Responses, Rhesus Monkey #7: 1+
  T-cell Proliferation Responses, Rhesus Monkey #23: 3+
  T-cell Proliferation Responses, Rhesus Monkey #283C: 2+
  proliferative responses of PBMCs (in words): weak responses
BALB/c mice
  anti-peptide antibody titers (in words): very low to negligible

## GVPVWKEATTLFC [Peptide 105]
PBMC
  proliferative responses of PBMCs (in words): A significant response was not detected

## HGEFAPGNYPALWSYA [Peptide B105, reference compound]
P815; […], same immunization protocol
  in vivo CTL response: successfully generated

## HIGPGRAFYTTKN [Peptide H13N]
[3]
  syncytia: no syncytia were observed
HIV-1 [4]; [8]
  inhibition of HIV-1 infection of primary human T cells: > 60%

## KKFNGTGPCTN [Peptide 115]
BALB/c mice
  anti-peptide antibody titers (in words): high antibody titers

## LWDQSLKPCVKLT [Peptide 111]
PBMC
  T-cell Proliferation Responses, Rhesus Monkey #7: 3+
  T-cell Proliferation Responses, Rhesus Monkey #23: 2+
  T-cell Proliferation Responses, Rhesus Monkey #283C: 3+
  proliferative responses of PBMCs (in words): good proliferative responses
BALB/c mice
  anti-peptide antibody titers (in words): very low to negligible

## NNTRKSIRIQRGPGRAFVTIGKIG [Peptide N24G]
[2]; to achieve the same level of inhibition (30-60%)
  concentration required for inhibition of syncytium formation: 300 µM
HIV-1 [4]; [8]
  inhibition of HIV-1 infection of primary human T cells: 92%

## NNTRKSITKGPGRVIYATGQIIGD [Peptide D26]
HIV-1 IIIB
  RT ACTIVITY (CPM): 2093 CPM

## RIHIGPGARFLTTKN [Peptide D39]
HIV-1 IIIB
  RT ACTIVITY (CPM): 1978 CPM

## RIHIGPGRAFFTTKN [Peptide D40]
HIV-1 IIIB
  RT ACTIVITY (CPM): 2805 CPM

## RIHIGPGRAFYTTKN [Peptide D24]
HIV-1 IIIB
  RT ACTIVITY (CPM): 5000 CPM

## RIQRGPGRAFVTIGK [Peptide R15K]
[3]
  syncytia: no syncytia were observed
HIV-1 [5]
  HIV-1 infection of MT-4 cells, reverse transcriptase activity in culture medium: inhibits HIV-1 infection
bovine, fetal calf serum, 24 h
  inhibitory activity retained, of control untreated peptide: 50%
Incubation in fetal calf serum at 37°C, tested at 1 µg/ml on MT-4 cells
  time for which full strength inhibitory activity was retained: up to 4 hours
3A9; mouse, in vivo
  % Specific Lysis: 7.0% and 0.6% and 0% and 10.0% and 8.0%
P815; monomeric peptide
  cytotoxicity after pre-treatment of effector cells with anti-CD4 MAbs plus complement, or complement alone: no significant effect
P815; mouse, in vivo
  Lysis of MHC-matched target cells without peptide pre-treatment (P815): not observed
  cytotoxicity after treatment of CTL effectors with anti-CD8 MAbs and rabbit complement: abolished the cytotoxicity
  lysis of P815 cells infected with recombinant vaccinia virus expressing HIV gp160 (VPE16): specifically lysed
  mice with CTLs specifically lysing P815 pre-incubated with the peptide: 8 of 12 and 13 of 13 and 6 of 8
HIV-1 IIIB
  % RT INHIBITION: 73.2%
  RT ACTIVITY (CPM): 2021 CPM
HIV-1 [4]
  inhibition of HIV-1 infection of primary human T cells: 92%
HIV-1 [6]
  HIV-1 infection of H9 cells, reverse transcriptase activity in culture supernatant: inhibits HIV-1 infection
[1]; mouse, in vivo
  time to CTL induction in the popliteal lymph node: ≤ 7 days
PBMC
  proliferative responses of PBMCs (in words): A significant response was not detected
HIV-1 [7]
  HIV-1 infection of CEM cells, reverse transcriptase activity in culture supernatant: inhibits HIV-1 infection

## RTPTGLGQSLYTTRS [Peptide D38]
HIV-1 IIIB
  RT ACTIVITY (CPM): 5823 CPM

## RVTLGPGRVWYTTGE [Peptide D29]
HIV-1 IIIB
  RT ACTIVITY (CPM): 13009 CPM

## SIHIGPGRAFYATGD [Peptide D30]
HIV-1 IIIB
  RT ACTIVITY (CPM): 3443 CPM

## SIRIGPGKVFTAKGG [Peptide D31]
HIV-1 IIIB
  RT ACTIVITY (CPM): 11877 CPM

## SISIGPGRAFFATTD [Peptide D34]
HIV-1 IIIB
  RT ACTIVITY (CPM): 11142 CPM

## SITKGPGRVIYATGQ [Peptide D28]
HIV-1 IIIB
  RT ACTIVITY (CPM): 7634 CPM

## SIYIGPGRAFHTTGR [Peptide D32]
HIV-1 IIIB
  RT ACTIVITY (CPM): 8002 CPM

## SLKPCVKLTPLC [Peptide 112]
BALB/c mice
  anti-peptide antibody titers (in words): high antibody titers

## SLSIGPGRAPRTREI [Peptide D25]
HIV-1 IIIB
  RT ACTIVITY (CPM): 4342 CPM

## STPIGLGQALYTTRG [Peptide D35]
HIV-1 IIIB
  RT ACTIVITY (CPM): 5242 CPM

## STPIGLGQALYTTRI [Peptide D37]
HIV-1 IIIB
  RT ACTIVITY (CPM): 7027 CPM

## SVITQACSKVSFE [Peptide 113]
PLN cells
  T cell response directed against both the corresponding peptide and native gp160: strong T cell response
PBMC
  T-cell Proliferation Responses, Rhesus Monkey #7: 1+
  T-cell Proliferation Responses, Rhesus Monkey #23: 2+
  T-cell Proliferation Responses, Rhesus Monkey #283C: 2+
  proliferative responses of PBMCs (in words): weak responses
BALB/c mice
  anti-peptide antibody titers (in words): very low to negligible; also recorded: do not stimulate anti-peptide antibody production

## TKGPGRVIYATGQ [Peptide T13Q]
[3]
  syncytia: no syncytia were observed
HIV-1 [4]; [8]
  inhibition of HIV-1 infection of primary human T cells: > 60%

## TYQRTRALVTG [Peptide B106, reference compound]
3A9; effector cells: No Treatment, target 3A9 (H-2^k), E:T 80:1
  % Specific Lysis: 0%
3A9; effector cells: No Treatment, target 3A9 (H-2^k), E:T 160:1
  % Specific Lysis: 0%

## VQCTHGIRPVVSTQ [Peptide 117]
BALB/c mice
  anti-peptide antibody titers (in words): high antibody titers

## VYYGVPVWKEA [Peptide 104]
PLN cells
  T cell response directed against both the corresponding peptide and native gp160: strong T cell response
PBMC
  T-cell Proliferation Responses, Rhesus Monkey #7: 4+
  T-cell Proliferation Responses, Rhesus Monkey #23: 2+
  T-cell Proliferation Responses, Rhesus Monkey #283C: 4+
  proliferative responses of PBMCs (in words): good proliferative responses
BALB/c mice
  anti-peptide antibody titers (in words): very low to negligible; also recorded: do not stimulate anti-peptide antibody production

## YLRDQQLLGIWGC [Peptide 61]
PLN cells
  T cell response directed against both the corresponding peptide and native gp160: strong T cell response
PBMC
  T-cell Proliferation Responses, Rhesus Monkey #23: 3+
  T-cell Proliferation Responses, Rhesus Monkey #283C: 2+
  proliferative responses of PBMCs (in words): Two of the three rhesus monkey-derived PBMC preparations also showed good proliferative responses
BALB/c mice
  anti-peptide antibody titers (in words): very low to negligible; also recorded: do not stimulate anti-peptide antibody production

## YNKRKRIHIGPGRAFYTTKNNIGC [Peptide D23]
HIV-1 IIIB
  RT ACTIVITY (CPM): 94 CPM
